In the supplement of paper PMC13380429:
Structures can show the parent of a compound that is named as a salt.

Tests used:
Settings in all cases: 72 h
Caco-2 [1] = assay: cell viability relative to DMSO; higher = less toxic
Calu-3 [2] = assay: as above
HepG2 [3] = assay: as above
U2OS [4] = assay: as above
Vero E6 [5] = assay: as above
Caco-2 [6] = assay: relative viability EC50 (midpoint between 100% and the lowest measured viability); higher = less toxic
Calu-3 [7] = assay: as above
HepG2 [8] = assay: as above
U2OS [9] = assay: as above
Vero E6 [10] = assay: as above
Caco-2 [11] = assay: drug sensitivity score (DSS) for viability; higher = more toxic; extreme values may be limits of the assay
Calu-3 [12] = assay: as above
HepG2 [13] = assay: as above
U2OS [14] = assay: as above
Vero E6 [15] = assay: as above

Structure (SMILES) | cell viability (Caco-2 [1]; 1 nM) | cell viability (Caco-2 [1]; 10 nM) | cell viability (Caco-2 [1]; 100 nM) | cell viability (Caco-2 [1]; 1000 nM) | cell viability (Caco-2 [1]; 10000 nM) | cell viability (Calu-3 [2]; 1 nM) | cell viability (Calu-3 [2]; 10 nM) | cell viability (Calu-3 [2]; 100 nM) | cell viability (Calu-3 [2]; 1000 nM) | cell viability (Calu-3 [2]; 10000 nM) | cell viability (HepG2 [3]; 1 nM) | cell viability (HepG2 [3]; 10 nM) | cell viability (HepG2 [3]; 100 nM) | cell viability (HepG2 [3]; 1000 nM) | cell viability (HepG2 [3]; 10000 nM) | cell viability (U2OS [4]; 1 nM) | cell viability (U2OS [4]; 10 nM) | cell viability (U2OS [4]; 100 nM) | cell viability (U2OS [4]; 1000 nM) | cell viability (U2OS [4]; 10000 nM) | cell viability (Vero E6 [5]; 1 nM) | cell viability (Vero E6 [5]; 10 nM) | cell viability (Vero E6 [5]; 100 nM) | cell viability (Vero E6 [5]; 1000 nM) | cell viability (Vero E6 [5]; 10000 nM) | relative viability EC50 (Caco-2 [6]) | relative viability EC50 (Calu-3 [7]) | relative viability EC50 (HepG2 [8]) | relative viability EC50 (U2OS [9]) | relative viability EC50 (Vero E6 [10]) | drug sensitivity score (Caco-2 [11]) | drug sensitivity score (Calu-3 [12]) | drug sensitivity score (HepG2 [13]) | drug sensitivity score (U2OS [14]) | drug sensitivity score (Vero E6 [15])
CNC(=O)c1ccc(-c2cnc3ncc(Cc4ccc5ncccc5c4)n3n2)cc1F [INC-280] | 97.9% | 90.7% | 96.6% | 104% | 88.4% | 101% | 103% | 99.9% | 101% | 110% | 89.2% | 100% | 88.8% | 111% | 82.6% | 107% | 95.7% | 99.6% | 98.1% | 102% | 95.7% | 98.4% | 91.5% | 96.1% | 83% | > 10 µM | > 10 µM | > 10 µM | > 10 µM | > 10 µM | 0 | 0 | 0.2 | 0 | 0.3
Cc1cc(C)cc(C(=O)N(C)[C@H](Cc2ccc(-c3ccccc3)cc2)C(=O)N[C@@H](Cc2c[nH]c3ccccc23)C(=O)O)c1 [IRL-2500] | 94% | 96.8% | 96.7% | 97.4% | 101% | 103% | 90.3% | 107% | 92.8% | 96.9% | 92.5% | 106% | 99.4% | 116% | 118% | 96.4% | 95.5% | 101% | 98.5% | 102% | 94.3% | 96.1% | 90.1% | 95.5% | 111% | > 10 µM | > 10 µM | > 10 µM | > 10 µM | > 10 µM | 0 | 0 | 0 | 0 | 0
O=C(NC1CC1)c1cc(-c2cccs2)on1 [ISX-9] | 98.1% | 98.3% | 93.3% | 101% | 87.6% | 93.6% | 105% | 104% | 99.7% | 84.3% | 104% | 95.8% | 102% | 103% | 87.6% | 97.7% | 98.4% | 98.4% | 102% | 85.5% | 111% | 96.5% | 108% | 99.4% | 101% | > 10 µM | > 10 µM | > 10 µM | > 10 µM | > 10 µM | 0.1 | 0.3 | 0 | 0.1 | 0
COc1ccc2cc(-c3cc(-c4cc(Cl)cc(Cl)c4)nn3[C@@H](C)c3ccc(C(=O)NCCC(=O)O)cc3)ccc2c1 [MK-0893] | 87.9% | 93.7% | 95.8% | 90.1% | 87.6% | 110% | 94.7% | 97.7% | 96.2% | 91.3% | 88.5% | 106% | 86.8% | 93.8% | 90% | 95.8% | 98.2% | 93.9% | 96.8% | 89.6% | 97.7% | 102% | 98.8% | 92.3% | 84.5% | > 10 µM | > 10 µM | > 10 µM | > 10 µM | > 10 µM | 0 | 0 | 0 | 0 | 0.6
Cc1cc(C(N)=O)ccc1-n1c(CCC(=O)O)ccc1-c1ccc(-n2ccnc2)cc1 [N6022] | 91.8% | 99.5% | 100% | 104% | 100% | 99.1% | 98.5% | 93.9% | 95.5% | 101% | 104% | 89.6% | 111% | 107% | 104% | 96.7% | 103% | 97.7% | 101% | 97.2% | 99.3% | 96.5% | 94.8% | 94% | 106% | > 10 µM | > 10 µM | > 10 µM | > 10 µM | > 10 µM | 0 | 0 | 0 | 0 | 0
CN(C(=O)Cc1ccccc1)[C@H](CN1CCCC1)c1ccccc1 [N-MPPP] | 111% | 94.8% | 102% | 97.4% | 95.9% | 103% | 96.2% | 91.6% | 106% | 93.4% | 93.5% | 93.6% | 97.8% | 100% | 98% | 95% | 95.8% | 101% | 102% | 99.1% | 105% | 104% | 102% | 106% | 99.5% | > 10 µM | > 10 µM | > 10 µM | > 10 µM | > 10 µM | 0 | 0 | 0 | 0 | 0
CC(=O)N[C@@H](C=O)[C@@H](O)[C@H](O)[C@H](O)CO [N-acetyl-D-glucosamine] | 93.3% | 97.6% | 113% | 102% | 107% | 103% | 111% | 101% | 93% | 95.9% | 91% | 85.7% | 94% | 94.7% | 87.3% | 102% | 99.7% | 102% | 97.3% | 102% | 100% | 110% | 104% | 106% | 87.5% | > 10 µM | > 10 µM | > 10 µM | > 10 µM | > 10 µM | 0 | 0 | 0 | 0 | 0
CNCCc1cnc[nH]1 [N-alpha-methylhistamine-dihydrochloride] | 94.5% | 104% | 92.5% | 98.2% | 102% | 101% | 97.2% | 91.5% | 109% | 94.5% | 104% | 95.9% | 103% | 87.7% | 112% | 97.4% | 105% | 101% | 102% | 98% | 99.4% | 91.6% | 96.7% | 91.5% | 97.1% | > 10 µM | > 10 µM | > 10 µM | > 10 µM | > 10 µM | 0 | 0 | 0 | 0 | 0
O=C1CC[C@@]2(O)[C@H]3Cc4ccc(O)c5c4[C@@]2(CCN3CC2CC2)[C@H]1O5 [NALTREXONE HYDROCHLORIDE] | 107% | 99% | 95.3% | 99.1% | 90% | 97.3% | 100% | 101% | 99.2% | 99% | 93.8% | 110% | 102% | 95.1% | 92.1% | 102% | 97.2% | 99.8% | 100% | 101% | 98.1% | 106% | 100% | 103% | 103% | > 10 µM | > 10 µM | > 10 µM | > 10 µM | > 10 µM | 0 | 0 | 0 | 0 | 0
N=C(NCCC[C@H](N)C(=O)O)N[N+](=O)[O-] [NG-nitro-arginine] | 92.7% | 88.8% | 106% | 84.2% | 89.4% | 93.5% | 106% | 91.7% | 93.7% | 94.6% | 96.7% | 101% | 95.2% | 101% | 95.2% | 104% | 95.6% | 101% | 93.2% | 97.9% | 104% | 101% | 103% | 101% | 92.8% | > 10 µM | > 10 µM | > 10 µM | > 10 µM | > 10 µM | 0 | 0 | 0 | 0 | 0
Nc1nc(OCC2CCCCC2)c2nc[nH]c2n1 [NU-2058] | 98.4% | 94.6% | 96.2% | 96.2% | 90.3% | 92.4% | 106% | 97.2% | 109% | 105% | 120% | 106% | 98.3% | 104% | 86.8% | 96.2% | 103% | 94.6% | 95.6% | 96% | 103% | 97.6% | 98.2% | 102% | 99.7% | > 10 µM | > 10 µM | > 10 µM | > 10 µM | > 10 µM | 0 | 0 | 0.1 | 0 | 0
O=C(Nc1cc2cc[nH]c2cn1)c1ccccc1 [OAC1] | 102% | 97% | 100% | 85.6% | 77.3% | 99.8% | 96.8% | 103% | 102% | 89.3% | 104% | 116% | 101% | 113% | 80.8% | 105% | 95.8% | 101% | 93.3% | 83.3% | 97.1% | 99.7% | 94.3% | 99.1% | 86.2% | > 10 µM | > 10 µM | > 10 µM | > 10 µM | > 10 µM | 2.3 | 0 | 0.3 | 1 | 0.2
COc1cccc2cc(-c3nc([C@H]4CC[C@H](C(=O)O)CC4)n4ncnc(N)c34)[nH]c12 [OSI-027] | 98.5% | 100% | 86.4% | 56.7% | 26.3% | 92.4% | 100% | 70.6% | 33.7% | 26.3% | 112% | 106% | 102% | 48.8% | 28.4% | 92.5% | 100% | 92.3% | 57.2% | 17.2% | 102% | 103% | 98.3% | 80.1% | 39.7% | 0.603 µM | 0.145 µM | 0.693 µM | 0.903 µM | 1.33 µM | 9.9 | 15.9 | 9.9 | 9.7 | 6.2
